ChEMBL document CHEMBL3596094, “Nucleoside Diphosphate Prodrugs: Nonsymmetric DiPPro-Nucleotides” (J Med Chem, 2015)

Legend:
[1] = system: Human immunodeficiency virus 2; experiment: Antiviral activity against HIV2 ROD infected in human CEM/0 cells assessed as reduction in virus-induced giant cell formation incubated for 4 to 5 days; assay type: functional, organism-based; details: Human immunodeficiency virus 2, ISOLATE ROD, CCRF-CEM
[2] = Cytotoxicity against human CEM/0 cells assessed as reduction in cell proliferation incubated for 4 to 5 days
[3] = Half life in pH 7.3 PBS incubated at 37 degC by RP-18-HPLC method; assay type: physicochemical
[4] = Half life in human CEM/0 cell extracts incubated at 37 degC by RP-18-HPLC method; assay type: ADME, CCRF-CEM
[5] = system: Human immunodeficiency virus 1; experiment: Antiviral activity against HIV1 3B infected in human CEM/0 cells assessed as reduction in virus-induced giant cell formation incubated for 4 to 5 days; assay type: functional, organism-based; details: Human immunodeficiency virus 1, 3B, CCRF-CEM
[6] = system: Human immunodeficiency virus 2; experiment: Antiviral activity against HIV2 ROD infected in human thymidine kinase deficient CEM/TK- cells assessed as reduction in virus-induced giant cell formation incubated for 4 to 5 days; assay type: functional, organism-based; details: Human immunodeficiency virus 2, ISOLATE ROD
[7] = Half life in presence of pig liver esterase assessed as half life for DiPPro-NDP by RP-18-HPLC method; assay type: ADME
[8] = Drug metabolism in human CEM/0 cell extracts assessed as increase in NDP/NMP ratio after 10 hrs by HILIC-HPLC method; assay type: ADME; details: ccrf-cem
[9] = Half life in pH 7.3 RPMI medium incubated at 37 degC by RP-18-HPLC method; assay type: physicochemical
[10] = Half life in presence of pig liver esterase assessed as half life for hydrolysis R1 intermediate by RP-18-HPLC method; assay type: ADME; details: isolated protein
[11] = Drug metabolism in human CEM/0 cell extracts assessed as increase in NDP/NMP ratio by HILIC-HPLC method; assay type: ADME, cell-based; details: ccrf-cem

EC50 [1]	half-life [3]	half-life [4]	EC50 [5]	EC50 [6]	half-life [7]	Drug metabolism [8]	half-life [9]	t1/2 [10]	SMILES	CC50 ([2]; CEM/0 cells)	Drug metabolism [11]	CC50 ([2]; ccrf-cem)
1050 nM	36 h	0.04 h	330 nM	6310 nM					CCCCCCCC(=O)Oc1ccc(COP(=O)(OCc2ccc(OC(C)=O)cc2)OP(=O)(O)OC[C@@H]2C=C[C@H](n3cc(C)c(=O)[nH]c3=O)O2)cc1.N (some centres undefined)	33000 nM		
1360 nM	40 h	0.04 h	330 nM	2320 nM	8.4 s				CCCCCCCCCC(=O)Oc1ccc(COP(=O)(OCc2ccc(OC(C)=O)cc2)OP(=O)(O)OC[C@@H]2C=C[C@H](n3cc(C)c(=O)[nH]c3=O)O2)cc1.N (some centres undefined)	15000 nM		
280 nM	48 h	0.16 h	290 nM	1770 nM					CCCCCCCCCCCC(=O)Oc1ccc(COP(=O)(OCc2ccc(OC(C)=O)cc2)OP(=O)(O)OC[C@@H]2C=C[C@H](n3cc(C)c(=O)[nH]c3=O)O2)cc1.N (some centres undefined)	26000 nM		
160 nM	33 h	0.02 h	42 nM	> 10000 nM	12.6 s				CCCCCCCC(=O)Oc1ccc(COP(=O)(OCc2ccc(OC(C)=O)cc2)OP(=O)(O)OC[C@H]2O[C@@H](n3cc(C)c(=O)[nH]c3=O)C[C@@H]2N=[N+]=[N-])cc1.N (some centres undefined)	29000 nM		
140 nM	35 h	0.04 h	16 nM	> 10000 nM	27 s	metabolite_detected	19 h		CCCCCCCCCC(=O)Oc1ccc(COP(=O)(OCc2ccc(OC(C)=O)cc2)OP(=O)(O)OC[C@H]2O[C@@H](n3cc(C)c(=O)[nH]c3=O)C[C@@H]2N=[N+]=[N-])cc1.N (some centres undefined)	20000 nM		
80 nM	32 h	0.11 h	42 nM	10000 nM	11.4 s			0.467 h	CCCCCCCCCCCC(=O)Oc1ccc(COP(=O)(OCc2ccc(OC(C)=O)cc2)OP(=O)(O)OC[C@H]2O[C@@H](n3cc(C)c(=O)[nH]c3=O)C[C@@H]2N=[N+]=[N-])cc1.N (some centres undefined)	18000 nM		
70 nM	46 h	0.83 h	36 nM	> 10000 nM	16.2 s			0.25 h	CCCCCCCC(=O)Oc1ccc(COP(=O)(OCc2ccc(OC(=O)CCCC)cc2)OP(=O)(O)OC[C@H]2O[C@@H](n3cc(C)c(=O)[nH]c3=O)C[C@@H]2N=[N+]=[N-])cc1.N (some centres undefined)	73000 nM		
290 nM	50 h	1 h	34 nM	10000 nM	16.2 s		77 h	0.317 h	CCCCCCCCCC(=O)Oc1ccc(COP(=O)(OCc2ccc(OC(=O)CCCC)cc2)OP(=O)(O)OC[C@H]2O[C@@H](n3cc(C)c(=O)[nH]c3=O)C[C@@H]2N=[N+]=[N-])cc1.N (some centres undefined)	41000 nM		
60 nM	63 h	1.65 h	13 nM	8160 nM	72 s			0.633 h	CCCCCCCCCCCC(=O)Oc1ccc(COP(=O)(OCc2ccc(OC(=O)CCCC)cc2)OP(=O)(O)OC[C@H]2O[C@@H](n3cc(C)c(=O)[nH]c3=O)C[C@@H]2N=[N+]=[N-])cc1.N (some centres undefined)	36000 nM		
54 nM			11 nM	> 10000 nM					CCCCC(=O)Oc1ccc(COP(=O)(OCc2ccc(OC(=O)CCCC)cc2)OP(=O)(O)OC[C@H]2O[C@@H](n3cc(C)c(=O)[nH]c3=O)C[C@@H]2N=[N+]=[N-])cc1.N	60000 nM	metabolite_detected	
230 nM			26 nM	1300 nM					CCCCCCCCCC(=O)Oc1ccc(COP(=O)(OCc2ccc(OC(=O)CCCCCCCCC)cc2)OP(=O)(O)OC[C@H]2O[C@@H](n3cc(C)c(=O)[nH]c3=O)C[C@@H]2N=[N+]=[N-])cc1	38000 nM		
		1.05 h							CCCCCCCCCCCC(=O)Oc1ccc(COP(=O)(O)OP(=O)(O)OC[C@H]2O[C@@H](n3cc(C)c(=O)[nH]c3=O)C[C@@H]2N=[N+]=[N-])cc1			

Further lines, the compound ahead of its results:

SMILES	EC50 [1]	half-life [3]	half-life [4]	EC50 [5]	EC50 [6]	half-life [7]	Drug metabolism [8]	half-life [9]	t1/2 [10]	CC50 ([2]; CEM/0 cells)	Drug metabolism [11]	CC50 ([2]; ccrf-cem)
CC(=O)Oc1ccc(COP(=O)(OCc2ccc(OC(=O)c3ccc(C(F)(F)F)cc3)cc2)OP(=O)(O)OC[C@@H]2C=C[C@H](n3cc(C)c(=O)[nH]c3=O)O2)cc1.N (some centres undefined)	1380 nM	15 h	0.03 h	720 nM	> 10000 nM					51000 nM		
CC(=O)Oc1ccc(COP(=O)(OCc2ccc(OC(=O)c3ccc(C)cc3)cc2)OP(=O)(O)OC[C@@H]2C=C[C@H](n3cc(C)c(=O)[nH]c3=O)O2)cc1.N (some centres undefined)	1470 nM	58 h	0.04 h	290 nM	10000 nM					11000 nM		
CCCCCCCC(=O)Oc1ccc(COP(=O)(OCc2ccc(OC(=O)CCCC)cc2)OP(=O)(O)OC[C@@H]2C=C[C@H](n3cc(C)c(=O)[nH]c3=O)O2)cc1.N (some centres undefined)	1470 nM	36 h	0.71 h	330 nM	6310 nM					66000 nM		
CCCCCCCCCC(=O)Oc1ccc(COP(=O)(OCc2ccc(OC(=O)CCCC)cc2)OP(=O)(O)OC[C@@H]2C=C[C@H](n3cc(C)c(=O)[nH]c3=O)O2)cc1.N (some centres undefined)	1170 nM	40 h	1.05 h	360 nM	830 nM	15.6 s				20000 nM		
CCCCCCCCCCCC(=O)Oc1ccc(COP(=O)(OCc2ccc(OC(=O)CCCC)cc2)OP(=O)(O)OC[C@@H]2C=C[C@H](n3cc(C)c(=O)[nH]c3=O)O2)cc1.N (some centres undefined)	280 nM	52 h	1.91 h	100 nM	130 nM					30000 nM		
CCCCC(=O)Oc1ccc(COP(=O)(OCc2ccc(OC(=O)c3ccc(C(F)(F)F)cc3)cc2)OP(=O)(O)OC[C@@H]2C=C[C@H](n3cc(C)c(=O)[nH]c3=O)O2)cc1.N (some centres undefined)	720 nM	15 h	0.88 h	400 nM	> 10000 nM					37000 nM		
CCCCC(=O)Oc1ccc(COP(=O)(OCc2ccc(OC(=O)c3ccc(C)cc3)cc2)OP(=O)(O)OC[C@@H]2C=C[C@H](n3cc(C)c(=O)[nH]c3=O)O2)cc1.N (some centres undefined)	1450 nM	50 h	0.96 h	300 nM	10000 nM					14000 nM		
CC(=O)Oc1ccc(COP(=O)(OCc2ccc(OC(=O)c3ccc(C(F)(F)F)cc3)cc2)OP(=O)(O)OC[C@H]2O[C@@H](n3cc(C)c(=O)[nH]c3=O)C[C@@H]2N=[N+]=[N-])cc1.N (some centres undefined)	60 nM	13 h	0.04 h	12 nM	> 10000 nM					100000 nM		
CCCCC(=O)Oc1ccc(COP(=O)(OCc2ccc(OC(=O)c3ccc(C(F)(F)F)cc3)cc2)OP(=O)(O)OC[C@H]2O[C@@H](n3cc(C)c(=O)[nH]c3=O)C[C@@H]2N=[N+]=[N-])cc1.N (some centres undefined)	60 nM	19 h	0.83 h	36 nM	> 10000 nM					58000 nM		
CCCCCCC(=O)Oc1ccc(COP(=O)(OCc2ccc(OC(=O)CCCCCC)cc2)OP(=O)(O)OC[C@H]2O[C@@H](n3cc(C)c(=O)[nH]c3=O)C[C@@H]2N=[N+]=[N-])cc1.N	58 nM			16 nM	> 10000 nM					47000 nM	metabolite_detected	
CCCCCCCC(=O)Oc1ccc(COP(=O)(O)OP(=O)(O)OC[C@@H]2C=C[C@H](n3cc(C)c(=O)[nH]c3=O)O2)cc1			1.65 h									
CCCCCCCCCC(=O)Oc1ccc(COP(=O)(O)OP(=O)(O)OC[C@@H]2C=C[C@H](n3cc(C)c(=O)[nH]c3=O)O2)cc1			0.833 h									
CCCCCCCCCCCC(=O)Oc1ccc(COP(=O)(O)OP(=O)(O)OC[C@@H]2C=C[C@H](n3cc(C)c(=O)[nH]c3=O)O2)cc1			1.15 h									
Cc1cn([C@H]2C=C[C@@H](COP(=O)(O)OP(=O)(O)OCc3ccc(OC(=O)c4ccc(C(F)(F)F)cc4)cc3)O2)c(=O)[nH]c1=O			11.5 h									
Cc1ccc(C(=O)Oc2ccc(COP(=O)(O)OP(=O)(O)OC[C@@H]3C=C[C@H](n4cc(C)c(=O)[nH]c4=O)O3)cc2)cc1			14.5 h									
CCCCCCCC(=O)Oc1ccc(COP(=O)(O)OP(=O)(O)OC[C@H]2O[C@@H](n3cc(C)c(=O)[nH]c3=O)C[C@@H]2N=[N+]=[N-])cc1			1.65 h									
CCCCCCCCCC(=O)Oc1ccc(COP(=O)(O)OP(=O)(O)OC[C@H]2O[C@@H](n3cc(C)c(=O)[nH]c3=O)C[C@@H]2N=[N+]=[N-])cc1			0.833 h									
Cc1cn([C@H]2C[C@H](N=[N+]=[N-])[C@@H](COP(=O)(O)OP(=O)(O)OCc3ccc(OC(=O)c4ccc(C(F)(F)F)cc4)cc3)O2)c(=O)[nH]c1=O			3.83 h									
Cc1cn([C@H]2C=C[C@@H](CO)O2)c(=O)[nH]c1=O [STAVUDINE]	2230 nM			520 nM	150000 nM							79000 nM
Cc1cn([C@H]2C[C@H](N=[N+]=[N-])[C@@H](CO)O2)c(=O)[nH]c1=O [ZIDOVUDINE]	490 nM			44 nM	> 250000 nM					> 250000 nM		
